# From publication PMC11653257, “Organometallic Half-Sandwich Complexes of 8-Hydroxyquinoline-Derived Mannich Bases with Enhanced Solubility: Targeting Multidrug Resistant Cancer” (Inorganic Chemistry, 2024)
# Read-outs that look alike come from different tables or passages of the source.
# Experiment: pKa of the ligands by UV–vis titration
# Format: physicochemical
# Settings: for pKa: 0.20 M KNO3, UV–vis, I = 0.20 M KNO3, 10 equiv. EDTA
# Protocol: Physico-chemical properties such as aqueous solubility, lipophilicity, and the actual protonation state at a given pH are known to influence the pharmacokinetic behavior of a drug.
# An Agilent Cary 8454 diode array spectrophotometer was utilized to obtain UV–vis spectra in the wavelength range 190–1100 nm. The path length (l) was 1 or 2 cm in most cases (the actual l is always indicated in the legends of the figures). The concentrations of the ligands and complexes were between 36 and 100 μM. The ligands were titrated in the presence of 10 equiv of EDTA. Individual samples contained 0–37 μM HSA, 0–206 μM MIM, 0–759 μM AHA, or 0–733 μM FHA. Spectra were always background and baseline corrected. The computer program HypSpec[64] was used to obtain stability constants.
structure (smiles),measurement,setting,value
"Oc1c(CN2CCCCC2)cc(Cl)c2cccnc12 [HQCl-pip, 5-chloro-7-(piperidin-1-ylmethyl)quinolin-8-ol]",pKa,read-out: pKa (Npyr/pipH+),11.3 ± 0.12
same,pKa,read-out: pKa (NqH+),2.09 ± 0.05
same,pKa,read-out: pKa (OH),7.42 ± 0.03
same,fraction of HL,"pH 7.4, based on the pKa values",42%
